What was measured:
Assay type in all cases: cell-based
[1] = test system: XBP1(u)-luciferase splicing reporter in HepG2 hepatoma cells; experiment: HepG2 XBP1 reporter assay (XBP1(u)-Luc); details: Homo sapiens, 6 hours after compound addition, Table 3, read-out: XBP1-luc HepG2 1 EC50
[2] = test system: intracellular calcium flux in Colo-205 cells; experiment: Calcium flux assay (FLIPR Calcium 5 Assay Kit, FLIPR3); details: Homo sapiens, 0.6 h, calcium flux measured over 36 minutes, read-out: Colo 205 Calcium Flux assay 384w Boston Ca assay FLIPR3 Colo EC50
Method: Compounds described herein induced ER stress by causing intracellular calcium flux. Calcium flux was measured in Colo-205 cells using the FLIPR® Calcium 5 Assay Kit according to manufacturer's protocol (Molecular Devices, Cat. #R8186) on a FLIPR3 system (Molecular Devices). Calcium flux is measured over 36 minutes. The Colo-205 calcium flux assay data are summarized in Table 3: A<0.6 μM; 0.6 μM≤B<2.0 μM; 2.0 μM≤C<10.0 μM; D≥10.0 μM.

[3] = test system: β-catenin-TCF-mediated reporter transcription activity in Colo 205 cells; experiment: Colo 205 reporter assay (TCF/LEF promoter-driven firefly luciferase); details: Homo sapiens; Colo 205 TCF/LEF luciferase reporter, 5 hours after compound addition, 384 well; read-out: Colo205 IC50

SMILES | EC50 [1] [nM] | EC50 [2] [nM] | IC50 [3] [nM]
Cc1cc(N2CCCOCC2c2cc3nccn3cc2Cl)nc(N)n1 (racemic) [I-191, 4-(3-(6-chloroimidazo[1,2-a]pyridin-7-yl)-1,4-oxazepan-4-yl)-6-methylpyrimidin-2-amine] | 600 to 2000 | < 600 | 300 to 1000
Cc1cc(N2CCCOCC2c2cc(N3CCCC3)ccc2Cl)nc(N)n1 (racemic) [I-199, (+/−)-4-[3-(2-chloro-5-pyrrolidin-1-yl-phenyl)-1,4-oxazepan-4-yl]-6-methyl-pyrimidin-2-amine] | 600 to 2000 | < 600 | 300 to 1000
Cc1cc(N2CCCOCC2c2ccc(P(C)(C)=O)cc2Cl)nc(N)n1 (racemic) [I-202, (+/−)-4-[3-(2-chloro-4-dimethylphosphoryl-phenyl)-1,4-oxazepan-4-yl]-6-methyl-pyrimidin-2-amine] | ≥ 5000 | 600 to 2000 | 300 to 1000
Cc1cc(N2CCCOCC2c2cc(N3CCOCC3)ccc2Cl)nc(N)n1 (racemic) [I-226, (+/−)-4-(3-(2-chloro-5-morpholinophenyl)-1,4-oxazepan-4-yl)-6-methylpyrimidin-2-amine] | < 600 | < 600 | 300 to 1000
COc1ccc(OC)c([C@H]2CCCCCN2c2cc(C)nc(N)n2)c1 (single isomer, unassigned) [I-40] | < 600 | < 600 | < 300
Cc1cc(N2CCCOC[C@@H]2c2ccc(S(C)(=O)=O)cc2Cl)nc(N)n1 (single isomer, unassigned) [I-68] | < 600 | < 600 | 300 to 1000
CC(=O)Nc1ccc([C@H]2COCCCN2c2cc(C)nc(N)n2)c(Cl)c1 (single isomer, unassigned) [I-162] | < 600 | < 600 | < 300
Cc1cc(N2CCCOC[C@H]2c2cc(NC(=O)C(F)(F)F)ccc2Cl)nc(N)n1 (single isomer, unassigned) [I-176] | 600 to 2000 | < 600 | 300 to 1000
Cc1cc(N2CCCOCC2c2cc(NC(=O)C(F)(F)F)ccc2Cl)nc(N)n1 (single isomer, unassigned) [I-177, N-(3-(4-(2-amino-6-methylpyrimidin-4-yl)-1,4-oxazepan-3-yl)-4-chlorophenyl)-2,2,2-trifluoroacetamide] | < 600 | < 600 | < 300

Now from value to molecule:

EC50 [1] [nM] | EC50 [2] [nM] | IC50 [3] [nM] | SMILES
< 600 | < 600 | < 300 | Cc1cc(N2CCCOCC2c2ccc(N(C)C3COC3)cc2Cl)nc(N)n1 (racemic) [I-186, (+/−)-4-[3-[2-chloro-4-[methyl(oxetan-3-yl)amino]phenyl]-1,4-oxazepan-4-yl]-6-methyl-pyrimidin-2-amine]
< 600 | < 600 | 300 to 1000 | COCC(=O)Nc1ccc(C2COCCCN2c2cc(C)nc(N)n2)c(Cl)c1 (racemic) [I-192, (+/−)-N-[4-[4-(2-amino-6-methyl-pyrimidin-4-yl)-1,4-oxazepan-3-yl]-3-chloro-phenyl]-2-methoxy-acetamide]
< 600 | < 600 | < 300 | Cc1cc(N2CCCOCC2c2ccc(N3CCCS3(=O)=O)cc2Cl)nc(N)n1 (racemic) [I-193, (+/−)-4-[3-[2-chloro-4-(1,1-dioxo-1,2-thiazolidin-2-yl)phenyl]-1,4-oxazepan-4-yl]-6-methyl-pyrimidin-2-amine]
< 600 | < 600 | 300 to 1000 | COCc1ccc(C2COCCCN2c2cc(C)nc(N)n2)c(Cl)c1 (racemic) [I-205, (+/−)-4-[3-[2-chloro-4-(methoxymethyl)phenyl]-1,4-oxazepan-4-yl]-6-methyl-pyrimidin-2-amine]
< 600 | < 600 | < 300 | Cc1cc(N2CCCOCC2c2ccc(CS(C)(=O)=O)cc2Cl)nc(N)n1 (racemic) [I-208, (+/−)-4-(3-(2-chloro-4-((methylsulfonyl)methyl)phenyl)-1,4-oxazepan-4-yl)-6-methylpyrimidin-2-amine]
